From patent US8236339B2, “Therapeutic delivery of carbon monoxide” (priority 2001, dated 2012)
Entries after “also recorded” stand apart in the source; their conditions may differ.

Legend:
[1] = Systemic blood pressure and heart rate in anaesthetised Sprague-Dawley rats; assay type: in vivo, rat; conditions: for HR, 60 μmol.kg^−1 / MAP, 60 μmol.kg^−1: directly after i.v. bolus 60 μmol/kg (cumulative 100); for HR, Baseline / MAP, Baseline: just before infusion of the compound
Procedure: Adult male Sprague-Dawley rats (280-350 g, 8-10 weeks of age) were bred in-house at the Northwick Park Institute for Medical Research (Harrow, UK). Rats were housed in groups of 3 in cages under a 12 h cycle of day/night, with free access to drinking water and fed ad libitum. All surgical procedures were performed in compliance with U.K. Home Office regulations. Rats were anaesthetised in a polycarbonate chamber in a stream of Enflurane™ (Abbot, UK) in oxygen before being transferred onto a mask and continuously supplied with Enflurane™ throughout the experiment with an anaesthetic machine (Aimed, UK). During the surgical procedure the rats were kept at a constant body temperature of 37° C. using a heat pad positioned underneath the operating surface. Specially designed femoral artery and venous catheters were then surgically implanted as previously described (see ref. 40). The catheter in the artery was connected via a luer connector and a three-way tap to a pressure transducer (Gould model P23ID, Statham, USA) for continuous mean arterial pressure (MAP) and heart rate (HR) monitoring. A purpose-built tail-cuff pressure transducer (ADInstruments, UK) was also placed on the tail of the rat and pressure transducer and tail cuff were connected to a polygraph recorder (Grass, Model 7D, Astra-med, UK) pre-calibrated in millimeters of mercury (mmHg). An analogue output provided data for a computer-based data acquisition system (PowerLab™, ADInstruments, UK). The computer-based system was set to record mean arterial pressure (MAP), in mmHg, and heart rate (HR), in beats/min (bpm), for the duration of the experiment. […] Once a stable pressure had been reached, each catheter was flushed with saline containing heparin and no further changes were made to the anaesthetic supply. Ru(CO)3Cl(glycinato) (CO-RM-3) was prepared in stock solutions of 20, 60 and 120 μmoles·ml^−1 by solubilizing the compound in saline. […] CO-RM-3 (or the negative control) was then infused into the animal via the femoral vein catheter as a bolus so that the final concentration infused was 10, 30 or 60 μmoles·kg^−1 body weight. Throughout the experiment MAP and HR were continuously recorded and monitored. Although concentrations of 10, 30 and 60 μmoles·kg^−1 were infused into each animal, the resulting concentrations in the animal were cumulative. Therefore, the final concentration attained in the animal was 10, 40 and 100 μmoles·kg^−1, respectively.
The results are presented in Table 2, where the data shown represents samples taken at baseline (just before infusion of the compound) and directly after administration of 10, 30 and 60 μmoles·kg^−1 of the compound. All data are mean i SEM. n=3 independent experiments. *P<0.05 vs. baseline.

[2] = tested on: isolated rat hearts; conditions: for effect on L-NAME-mediated vasoconstriction / rise in CPP: L-NAME 25 μM perfusion
Procedure: Langendorff heart preparations were performed using male Lewis rats (300-350 g) as previously described by our group (35). […] (pH 7.4). Coronary perfusion pressure (CPP), a parameter indicative of coronary vessel contractility, was continuously measured by a pressure transducer connected to the aortic cannula and data analyzed with an Acknowledge software (BIOPAC System Inc.).
Hearts removed either from control rats (vehicle-treated) or from animals that were pre-treated with the heme oxygenase-1 inducer hemin (75 μmol/kg, i.p.) the day before, were initially equilibrated for 20 min on the Langendorff apparatus and then perfused with L-NAME (25 μM final concentration) to elicit vasoconstriction. The extent of CPP increase by L-NAME was also monitored over time in hemin-treated animals that received a heme oxygenase inhibitor (SnPPIX, 40 μmol/kg) 1 h prior to heart excision and in control hearts that were perfused with buffer supplemented with [Mn2(CO)10] (13 μM final concentration). Since [Mn2(CO)10] releases CO only by photodissociation, Krebs buffer containing [Mn2(CO)10] was exposed to a cold light source immediately before entering the aortic cannula.

[3] = L-NAME-induced increase in mean arterial pressure in anaesthetised Lewis rats; assay type: in vivo, rat; conditions: L-NAME 30 μmol/kg i.v.; [Ru(CO)3Cl2]2 60 μmol/kg i.v. 1 h before; hemin 75 μmol/kg i.p. 24 h before; SnPPIX 40 μmol/kg i.p.
Procedure: Lewis rats (280-350 g) were anaesthetised by intramuscular injection of 1 ml/kg Hypnorm (fentanyl 0.315 mg/ml and fluanisone 10 mg/ml) followed 5 min later by an intraperitoneal injection of 5 mg/kg diazepam. Specially designed femoral artery and venous catheters were then surgically implanted as previously described (40). The arterial cannula was connected to a Grass pressure transducer and blood pressure monitored continuously using a polygraph recorder. Experiments were conducted on anaesthetized animals and recordings were made within 30 min of the surgical procedure.
Control rats (vehicle-treated) and animals that were pre-treated with hemin (75 μmol/kg, i.p) 24 h prior to blood pressure monitoring were then administered with an intravenous injection of 30 μmol/Kg L-NAME to elicit an increase in mean arterial pressure. The extent of blood pressure increase by L-NAME was also monitored over time in hemin-treated animals that received SnPPIX (40 μmol/kg, i.p.) and in control rats previously injected with [Ru(CO)3Cl2]2 (60 μmol/kg, i.v.). In these two groups, SnPPIX or [Ru(CO)3Cl2]2 were administered to animals 1 h prior to L-NAME injection.

[4] = tested on: Rat vascular smooth muscle cells; assay: Cell viability of vascular smooth muscle cells (colorimetric assay); assay type: cell-based
Procedure: Rat vascular smooth muscle cells were obtained from the Coriell Cell Repository (Camden, N.J., USA) and grown in Dulbecco's […] (MEM) supplemented with 20% foetal calf serum, 2×MEM vitamins, 2×MEM non-essential and essential amino acids, penicillin (100 units/ml) and streptomycin (0.1 mg/ml). Confluent cells were treated with different concentrations of metal carbonyl (introduced as DMSO solution—see section B) for various times and cell viability was assessed using a colorimetric assay kit from Promega (Madison, Wis., USA) as previously described (47) after 3 or 24 h incubation, or after 3 h exposure to the agents followed by 21 h incubation in complete media. Results are expressed as the mean±s.e.m. of 6 independent experiments and differences were considered statistically significant at P<0.05 (*).

[5] = tested on: aortic rings pre-contracted with phenylephrine; assay: Relaxation of isolated aortic rings pre-contracted with phenylephrine; set-up: species or system rat; conditions: for vasodilatory effect on pre-contracted aortic rings (in words): consecutive additions; for % Relaxation, 1st addition / % Relaxation, 2nd addition / % Relaxation, 3rd addition: cumulative doses, phenylephrine 3 μM
Procedure: Transverse ring sections of thoracic aorta were isolated from male Lewis rats and suspended under a 2 g tension in an organ bath containing oxygenated Krebs-Henseleit buffer at 37° C. as previously described (23). The relaxation response to cumulative doses of metal carbonyl (dissolved in DMSO—see section 2) was assessed in aortic rings pre-contracted with phenylephrine (3 μM). Control rings were similarly treated by adding equal doses of DMSO (vehicle) to the organ bath.

[6] = tested on: deoxymyoglobin (deoxy-Mb); assay: Myoglobin assay: conversion of deoxy-Mb to MbCO on direct addition of metal carbonyl; assay type: biochemical, horse; conditions: for MbCO formation / CO release when added directly to deoxy-Mb solution: direct addition to myoglobin solution (66 μM), no light
Procedure: The release of CO from metal carbonyl complexes was assessed spectrophotometrically by measuring the conversion of deoxymyoglobin (deoxy-Mb) to carbonmonoxy myoglobin (MbCO). MbCO has a distinctive absorption spectrum between 500 and 600 nm, and changes at 540 nm were used to quantify the amount of CO liberated. Myoglobin solutions (66 μM final concentration) were prepared freshly by dissolving the protein in 0.04 M phosphate buffer (pH 6.8). Sodium dithionite (0.1%) was added to convert myoglobin to deoxy-Mb prior to each reading. All the spectra were measured using a Helios a spectrophotometer.
Various metal carbonyl complexes were tested for their ability to elicit MbCO formation when added directly to a deoxy-Mb solution. To different extents, [Ru(CO)3Cl2]2, [Ru(CO)2(DMSO)2Cl2], [Ru(CO)3Cl2(cytosine)] and […] all released CO when added directly to the Mb solution.
The metal carbonyl complex was solubilized in DMSO (9.7 mM stock solution), aliquots of 2 to 32 μl were added directly to 1 ml of deoxy-Mb solutions (66 μM) and absorption spectrum determined immediately after mixing the samples by inversion.

[7] = directly after i.v. bolus 10 μmol/kg
[8] = directly after i.v. bolus 30 μmol/kg (cumulative 40)

| Compound | effect on L-NAME-induced increase in blood pressure [3] | vasodilatory effect on pre-contracted aortic rings (in words) [5] | % Relaxation, 1st addition [5] [%] | % Relaxation, 2nd addition [5] [%] | % Relaxation, 3rd addition [5] [%] | MbCO formation / CO release when added directly to deoxy-Mb solution [6] | further results |
| --- | --- | --- | --- | --- | --- | --- | --- |
| CS(C)=O.CS(C)=O.CS(C)=O.CS(C)=O.[Cl][Ru][Cl] [Cis-RuCl2(DMSO)4, reference compound] | – | – | – | – | – | – | effects on HR or MAP (in words) ([1]; 10, 30 or 60 μmoles·kg^−1): no significant effects on either HR or MAP; marginal increase in MAP during the administration of each bolus ([1]; believed to be a volume effect, also seen with saline): 5.5±1 mmHg; HR, 10 μmol.kg^−1 [1, 7]: 255 ± 6 bpm; MAP, 10 μmol.kg^−1 [1, 7]: 82 ± 4 mmHg; HR, 30 μmol.kg^−1 [1, 8]: 256 ± 8 bpm; MAP, 30 μmol.kg^−1 [1, 8]: 79 ± 5 mmHg; HR, 60 μmol.kg^−1 [1]: 256±9 bpm; MAP, 60 μmol.kg^−1 [1]: 81±4 mmHg; HR, 60 μmol.kg^−1 ([1]; listed as Cts-RuCl2(DMSO)4): 256 ± 9 bpm; MAP, 60 μmol.kg^−1 ([1]; listed as Cts-RuCl2(DMSO)4): 81± 4 mmHg; HR, Baseline [1]: 257±7 bpm; MAP, Baseline [1]: 80±2 mmHg; HR, Baseline ([1]; listed as Cts-RuCl2(DMSO)4): 257 ± 7 bpm; MAP, Baseline ([1]; listed as Cts-RuCl2(DMSO)4): 80 ± 2 mmHg |
| COC(=O)[C@@H](N)CCCNC(=N)N[N+](=O)[O-] [L-NAME, N^G-nitro-L-arginine methyl ester] | rapid and significant increase in blood pressure | – | – | – | – | – | maximum increase in CPP ([2]; L-NAME 25 μM, after 30 min): 3 fold |
| O.[Cl][Ru]([Cl])[Cl] [RuCl3, ruthenium(III) chloride hydrate, reference compound] | – | – | – | – | – | – | decrease in cell viability over time ([4]; equivalent molar concentrations of ruthenium): did not cause any appreciable decrease in cell viability |
| C=Cc1c2[n-]c(c1C)/C=c1\[n-]/c(c(C)c1C=C)=C\c1[n-]c(c(CCC(=O)O)c1C)C=c1[n-]/c(c(C)c1CCC(=O)O)=C\2.[Sn+4] [SnPPIX, tin protoporphyrin IX] | totally reversed | – | – | – | – | – | effect on L-NAME-mediated vasoconstriction / rise in CPP [2]: the effect of hemin was completely reversed |
| [C-]#[O+].[C-]#[O+].[C-]#[O+].[C-]#[O+].[C-]#[O+].[C-]#[O+].[Cl][Ru][Cl].[Cl][Ru][Cl] [[Ru(CO)3Cl2]2, tricarbonyldichlororuthenium (II) dimer] | markedly suppressed | rapid and significant vasodilatation | 49.9 ± 2.7 | 66.2 ± 3.2 | 74.1 ± 4.1 | released CO | extent of relaxation after the first addition, more than control ([5]; 222 μM final concentration): 45%; phenylephrine-induced contraction after extensive washing ([5]; after extensive washing, restored in control but not in treated vessels): produces long-lasting effects; cell viability ([4]; 3 h exposure followed by additional 21 h incubation in complete medium): well preserved; cytotoxicity ([4]; 3 h treatment, 0-420 μM final concentration): did not promote any detectable cytotoxicity; loss in cell viability ([4]; prolonged exposure (24 h), very high concentrations (>400 μM)): > 50%; moles of CO liberated for each mole of compound ([6]; 9.7 mM DMSO stock, 2 to 32 μl added to 1 ml deoxy-Mb 66 μM, linear regression of MbCO saturation curve): approximately 0.7 moles |
| [Fe(SPh)2(2,2′-bipyridine)(CO)2] | – | very effective in promoting vasorelaxation | 50.8 | 60.5 | 75 | did not release any detectable CO to myoglobin; also recorded: No MbCO was detected | – |
| [Fe(SPh)2(H2NCH2CH2NH2)(CO)2] | – | less evident | 11 | 24.6 | 29.3 | No MbCO was detected | – |
| [Ru(CO)2(DMSO)2Cl2] | – | produced vasodilatation although the effect was less pronounced compared to [Ru(CO)3Cl2]2 | 1.6 | 16 | 35 | released CO | – |
| [Ru(CO)3Cl2(cytosine)] | – | did not demonstrate any effect | 3.2 | 10.3 | 12.6 | released CO | – |
| manganese chloride | – | – | – | – | – | – | effect on L-NAME-mediated vasoconstriction / rise in CPP [2]: had no effect on myocardial CPP |
